Organism: Rattus norvegicus
Assay: DrugMatrix - Regimen: Daily Repeat
Assay type: toxicity, organism-based, Sprague-Dawley
Parameters: regimen Daily Repeat, gender Male, age 6-8 weeks
Settings: in vivo, po, route oral GAVAGE, vehicle 100 % WATER; for ABSOLUTE BASOPHIL / ABSOLUTE EOSINOPHIL / ABSOLUTE LYMPHOCYTE / ABSOLUTE MONOCYTE / ABSOLUTE SEGMENTED NEUTROPHIL / BASOPHIL / EOSINOPHIL / ERYTHROCYTE COUNT / HEMATOCRIT / HEMOGLOBIN / LEUKOCYTE COUNT / LYMPHOCYTE / MEAN CORPUSCULAR HEMOGLOBIN / MEAN CORPUSCULAR HEMOGLOBIN CONCENTRATION / MEAN CORPUSCULAR VOLUME / MONOCYTE / NEUTROPHIL / NUCLEATED RED BLOOD CELLS / PLATELET COUNT: tissue Blood; for ALANINE AMINOTRANSFERASE / ALBUMIN / ALKALINE PHOSPHATASE / ASPARTATE AMINOTRANSFERASE / BLOOD UREA NITROGEN / CARBON DIOXIDE / CHLORIDE / CHOLESTEROL / CREATINE PHOSPHOKINASE / CREATININE / GLUCOSE / LACTATE DEHYDROGENASE / LIPASE / PHOSPHORUS / POTASSIUM / SODIUM / TOTAL BILIRUBIN / TOTAL PROTEIN / URIC ACID: tissue Plasma
[1] = 0 mg/kg, 72 h, dose level Control, time 3 day
[2] = 0 mg/kg, 120 h, dose level Control, time 5 day
[3] = 2 mg/kg, 72 h, dose level Low, time 3 day

Structure (SMILES): C[C@]12C=CC(=O)C=C1CC[C@@H]1[C@@H]2[C@@H](O)C[C@@]2(C)[C@H]1CC[C@]2(O)C(=O)CO [PREDNISOLONE]
- ABSOLUTE BASOPHIL [1]: 0 CELLS/uL
- ABSOLUTE EOSINOPHIL [1]: 24 CELLS/uL
- ABSOLUTE LYMPHOCYTE [1]: 13105 CELLS/uL
- ABSOLUTE MONOCYTE [1]: 76 CELLS/uL
- ABSOLUTE SEGMENTED NEUTROPHIL [1]: 2145 CELLS/uL
- BASOPHIL [1]: 0%
- EOSINOPHIL [1]: 0.17%
- ERYTHROCYTE COUNT [1]: 5.81 x10E6/uL
- HEMATOCRIT [1]: 35.6%
- HEMOGLOBIN [1]: 13.72 G/DL
- LEUKOCYTE COUNT [1]: 15.35 x10E3/uL
- LYMPHOCYTE [1]: 85.5%
- MEAN CORPUSCULAR HEMOGLOBIN [1]: 23.62 pg
- MEAN CORPUSCULAR HEMOGLOBIN CONCENTRATION [1]: 38.55 G/DL
- MEAN CORPUSCULAR VOLUME [1]: 61.23 fL
- MONOCYTE [1]: 0.5%
- NEUTROPHIL [1]: 13.83%
- NUCLEATED RED BLOOD CELLS [1]: 0 /100WBC
- PLATELET COUNT [1]: 1189.83 x10E3/uL
- ALANINE AMINOTRANSFERASE [1]: 48.67 u/L
- ALBUMIN [1]: 4.27 G/DL
- ALKALINE PHOSPHATASE [1]: 335 u/L
- ASPARTATE AMINOTRANSFERASE [1]: 86.5 u/L
- BLOOD UREA NITROGEN [1]: 14.33 mg/dL
- CARBON DIOXIDE [1]: 29.17 mmol/L
- CHLORIDE [1]: 99.83 MEQ/L
- CHOLESTEROL [1]: 71.83 mg/dL
- CREATINE PHOSPHOKINASE [1]: 506.83 u/L
- CREATININE [1]: 0.18 mg/dL
- GLUCOSE [1]: 162.17 mg/dL
- LACTATE DEHYDROGENASE [1]: 264.5 u/L
- LIPASE [1]: 9.67 u/L
- PHOSPHORUS [1]: 11.92 mg/dL
- POTASSIUM [1]: 6.55 MEQ/L
- SODIUM [1]: 141.53 MEQ/L
- TOTAL BILIRUBIN [1]: 0.18 mg/dL
- TOTAL PROTEIN [1]: 5.87 G/DL
- URIC ACID [1]: 1.67 mg/dL
- ABSOLUTE BASOPHIL [2]: 0 CELLS/uL
- ABSOLUTE EOSINOPHIL [2]: 25.33 CELLS/uL
- ABSOLUTE LYMPHOCYTE [2]: 15680 CELLS/uL
- ABSOLUTE MONOCYTE [2]: 92.33 CELLS/uL
- ABSOLUTE SEGMENTED NEUTROPHIL [2]: 2102.33 CELLS/uL
- BASOPHIL [2]: 0%
- EOSINOPHIL [2]: 0.17%
- ERYTHROCYTE COUNT [2]: 6 x10E6/uL
- HEMATOCRIT [2]: 35.55%
- HEMOGLOBIN [2]: 14.12 G/DL
- LEUKOCYTE COUNT [2]: 17.9 x10E3/uL
- LYMPHOCYTE [2]: 87.33%
- MEAN CORPUSCULAR HEMOGLOBIN [2]: 23.65 pg
- MEAN CORPUSCULAR HEMOGLOBIN CONCENTRATION [2]: 39.77 G/DL
- MEAN CORPUSCULAR VOLUME [2]: 59.52 fL
- MONOCYTE [2]: 0.5%
- NEUTROPHIL [2]: 12%
- NUCLEATED RED BLOOD CELLS [2]: 0.17 /100WBC
- PLATELET COUNT [2]: 1325.67 x10E3/uL
- ALANINE AMINOTRANSFERASE [2]: 56.17 u/L
- ALBUMIN [2]: 4.23 G/DL
- ALKALINE PHOSPHATASE [2]: 371.5 u/L
- ASPARTATE AMINOTRANSFERASE [2]: 91 u/L
- BLOOD UREA NITROGEN [2]: 15.33 mg/dL
- CARBON DIOXIDE [2]: 27.67 mmol/L
- CHLORIDE [2]: 99.5 MEQ/L
- CHOLESTEROL [2]: 66.5 mg/dL
- CREATINE PHOSPHOKINASE [2]: 518.5 u/L
- CREATININE [2]: 0.18 mg/dL
- GLUCOSE [2]: 143.33 mg/dL
- LACTATE DEHYDROGENASE [2]: 238.83 u/L
- LIPASE [2]: 9.33 u/L
- PHOSPHORUS [2]: 10.68 mg/dL
- POTASSIUM [2]: 6.5 MEQ/L
- SODIUM [2]: 141.88 MEQ/L
- TOTAL BILIRUBIN [2]: 0.18 mg/dL
- TOTAL PROTEIN [2]: 6 G/DL
- URIC ACID [2]: 1.63 mg/dL
- ABSOLUTE BASOPHIL [3]: 0 CELLS/uL
- ABSOLUTE EOSINOPHIL [3]: 0 CELLS/uL
- ABSOLUTE LYMPHOCYTE [3]: 13282 CELLS/uL
- ABSOLUTE MONOCYTE [3]: 183.67 CELLS/uL
- ABSOLUTE SEGMENTED NEUTROPHIL [3]: 1434.33 CELLS/uL
- BASOPHIL [3]: 0%
- EOSINOPHIL [3]: 0%
- ERYTHROCYTE COUNT [3]: 5.89 x10E6/uL
- HEMATOCRIT [3]: 36.9%
- HEMOGLOBIN [3]: 14.23 G/DL
- LEUKOCYTE COUNT [3]: 14.9 x10E3/uL
- LYMPHOCYTE [3]: 88.67%
- MEAN CORPUSCULAR HEMOGLOBIN [3]: 24.17 pg
- MEAN CORPUSCULAR HEMOGLOBIN CONCENTRATION [3]: 38.57 G/DL
- MEAN CORPUSCULAR VOLUME [3]: 62.63 fL
- MONOCYTE [3]: 1%
- NEUTROPHIL [3]: 10.33%
- NUCLEATED RED BLOOD CELLS [3]: 0 /100WBC
- PLATELET COUNT [3]: 1283.33 x10E3/uL
- ALANINE AMINOTRANSFERASE [3]: 48.33 u/L
- ALBUMIN [3]: 4.37 G/DL
- ALKALINE PHOSPHATASE [3]: 335.33 u/L
- ASPARTATE AMINOTRANSFERASE [3]: 82.67 u/L
- BLOOD UREA NITROGEN [3]: 15.67 mg/dL
- CARBON DIOXIDE [3]: 25.33 mmol/L
- CHLORIDE [3]: 101.33 MEQ/L
- CHOLESTEROL [3]: 64.67 mg/dL
- CREATINE PHOSPHOKINASE [3]: 495.33 u/L
- CREATININE [3]: 0.15 mg/dL
- GLUCOSE [3]: 167.67 mg/dL
- LACTATE DEHYDROGENASE [3]: 139 u/L
- LIPASE [3]: 9.67 u/L
- PHOSPHORUS [3]: 12.63 mg/dL
- POTASSIUM [3]: 5.96 MEQ/L
- SODIUM [3]: 144.8 MEQ/L
- TOTAL BILIRUBIN [3]: 0.17 mg/dL
- TOTAL PROTEIN [3]: 6.1 G/DL
- URIC ACID [3]: 1.97 mg/dL
